In publication PMC4954775 (Nature chemical biology, 2013):

Target: T1, α-L-iduronidase (IDUA) (Homo sapiens, UniProt P35475)
T1 sequence (P35475 28-653): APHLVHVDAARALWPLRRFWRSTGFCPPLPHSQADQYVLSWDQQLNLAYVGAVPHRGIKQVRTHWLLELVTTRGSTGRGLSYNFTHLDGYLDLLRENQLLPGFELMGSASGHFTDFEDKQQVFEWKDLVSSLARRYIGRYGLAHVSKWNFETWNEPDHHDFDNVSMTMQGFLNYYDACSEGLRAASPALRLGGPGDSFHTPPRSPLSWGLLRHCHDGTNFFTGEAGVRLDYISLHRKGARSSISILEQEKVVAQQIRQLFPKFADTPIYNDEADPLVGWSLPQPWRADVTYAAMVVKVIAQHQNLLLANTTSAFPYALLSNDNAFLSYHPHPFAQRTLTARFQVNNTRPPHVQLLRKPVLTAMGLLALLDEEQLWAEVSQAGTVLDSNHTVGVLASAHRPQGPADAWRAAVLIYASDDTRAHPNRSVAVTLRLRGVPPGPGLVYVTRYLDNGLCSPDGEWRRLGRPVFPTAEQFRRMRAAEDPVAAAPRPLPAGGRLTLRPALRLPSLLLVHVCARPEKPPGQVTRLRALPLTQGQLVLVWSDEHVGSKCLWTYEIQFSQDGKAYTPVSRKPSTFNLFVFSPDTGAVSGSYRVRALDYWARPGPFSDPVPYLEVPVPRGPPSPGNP
Test: X-ray crystal structure
Type: biochemical

How did the IC50 turn out when `O=C(O)[C@@H]1NC[C@H](O)[C@@H](O)[C@@H]1O` [IdoADNJ, [2R, 3R, 4R, 5S]-2-carboxy-3,4,5-trihydroxy-piperidine] was run?
Its IC50 is ~3 mM.
